Data taken from patent US20210023089A1, “Compositions Useful for Treating Herpes Simplex Keratitis, and Methods Using Same” (priority 2013, published 2021).

Experiments:
[1] = system: HSV-1; experiment: HSV-1 cytopathic effect in infected hTCEpi cells (phase contrast); assay type: cell-based, HSV-1 (KOS strain); settings: MOI 0.1, inhibitor 10 μM, 20 hpi
Experimental: (§1) All cells were cultured at 37° C. and 5% CO2 and supplemented with 100 U/mL penicillin and […]. Human corneal epithelial cells immortalized with hTERT (hTCEpi; Robertson, et al., 2005, Invest Ophthalmol Vis Sci. 46:470-478) were grown in complete keratinocyte growth medium 2 (KGM-2; Lonza, Basel, Switzerland). African green monkey kidney fibroblasts (CV-1; American Type Culture Collection, Manassas, Va.) were grown in Dulbecco's modified Eagle's medium (DMEM; Cellgro, Manassas, Va.) supplemented with 10% FBS. The KOS strain of HSV-1 was used in the in vitro and ex vivo infections, whereas McKrae strain was used for in vivo mouse experiments, and TK mutant dlsptk strain (Coen et al., 1989, Proc Natl Acad Sci USA 86:4736-4740) was used in the drug resistance experiments. All viral stocks were titered on CV-1 monolayers.
(§2) The following strains of HSV-1 were used: KOS, ICPO-null, HFEM, and tsB7. Subconfluent monolayers of cells were grown in six-well plates. Drug treatments were administered 45 minutes prior to infection and continued for the entire duration of each experiment. Unless indicated otherwise, KU-55933 (Batch No. 5, 99.7% purity; Tocris Bioscience, Bristol, UK) was used at 10 μM final concentration, phosphonoacetic acid (PAA) at 400 μg/mL (Sigma-Aldrich, St. Louis, Mo.), and acyclovir at 50 μg/mL (Sigma-Aldrich). […]

[2] = system: HSV-1; experiment: Plaque assay of supernatants from HSV-1 infected hTCEpi cells; assay type: cell-based, HSV-1 (KOS strain)
Experimental: as §1, §2

[3] = system: HSV-1; experiment: qPCR of viral genome replication in HSV-1 infected hTCEpi cells; assay type: cell-based, HSV-1 (KOS strain); settings: for viral genome replication (qPCR): MOI 0.1, inhibitor 10 μM
Experimental: The following strains of HSV-1 were used: KOS, ICPO-null, HFEM, and tsB7. Subconfluent monolayers of cells were grown in six-well plates. Drug treatments were administered 45 minutes prior to infection and continued for the entire duration of each experiment. Unless indicated otherwise, KU-55933 (Batch No. 5, 99.7% purity; Tocris Bioscience, Bristol, UK) was used at 10 μM final concentration, phosphonoacetic acid (PAA) at 400 μg/mL (Sigma-Aldrich, St. Louis, Mo.), and acyclovir at 50 μg/mL (Sigma-Aldrich). KU-55933 was dissolved in dimethyl sulfoxide (DMSO), and the final concentration of DMSO in both KU-55933 and mock treatment in the in vitro and the ex vivo experiments was 0.1%.
Infections with KOS strain of HSV-1 were carried out in six-well plates in a 200 μL inoculum volume at 37° C. for 1 hour with intermittent rocking. The cells were then rinsed and overlaid with fresh medium.
Viral genome replication and transcription were measured by quantitative PCR (qPCR). Total DNA and RNA from infected cells were isolated using the DNeasy Blood & Tissue Kit and the RNeasy Mini Kit, respectively (QIAGEN, Hilden, Germany). RNA was converted to cDNA using qScript (Quanta BioSciences, Gaithersburg, Md.). Real-time qPCR was performed with SYBR Green (Bio-Rad, Hercules, Calif.). Target primers for UL30 (DNA polymerase catalytic subunit) and reference primers for glyceraldehyde 3-phosphate dehydrogenase (GAPDH) were used to measure genome replication. Transcription of the three gene families was measured with primers for RL2 (ICPO), UL30 (DNA polymerase catalytic subunit), and UL44 (gC), with reference primers for the 18S ribosomal RNA (rRNA).
Cells were grown in 6-well plates and used in experiments at −80% confluence. Drug treatments were administered 45 min prior to infection and continued for the entire duration of each experiment. Unless indicated otherwise, Chk2 inhibitor II (>98% purity by HPLC) was used at 10 μM final concentration, and phosphonoacetic acid (PAA) at 400 μg/ml (both from Sigma-Aldrich, St. Louis, Mo.). Chk2 inhibitor II was dissolved in DMSO such that the final concentration of DMSO in both Chk2 inhibitor II and mock treatment was 0.1%. Infections with KOS strain of HSV-1 were carried out in 6-well plates in a 200 μl inoculum volume at 37° C. for 1 hour with intermittent rocking. The cells were then thoroughly rinsed and overlaid with fresh medium.
Total DNA from infected cells and corneas was isolated using the DNeasy Blood & Tissue Kit (QIAGEN, Hilden, Germany). Real time quantitative PCR was performed with SYBR Green (Bio-Rad, Hercules, Calif.). Target primers for UL30 (DNA polymerase catalytic subunit) and reference primers for GAPDH were used to measure viral genome abundance. Primer sequences were based on the KOS genome (accession #JQ673480.1).

[4] = target: T1, ATM (Homo sapiens, UniProt Q13315); experiment: pATM Western blot in bleomycin-damaged ex vivo human corneas (bioavailability); assay type: cell-based; settings: bleomycin 200 μg/mL 1 hour, KU-55933 10 μM 1 hour pretreatment
T1 construct: The epithelial layers were collected for protein lysates and analyzed by Western blot with antibodies against pATM (Ser1981) and total ATM; tissue Lions Eye Bank of Delaware Valley; host or cells: epithelial layer of explanted human corneas
T1 sequence (Q13315 whole entry): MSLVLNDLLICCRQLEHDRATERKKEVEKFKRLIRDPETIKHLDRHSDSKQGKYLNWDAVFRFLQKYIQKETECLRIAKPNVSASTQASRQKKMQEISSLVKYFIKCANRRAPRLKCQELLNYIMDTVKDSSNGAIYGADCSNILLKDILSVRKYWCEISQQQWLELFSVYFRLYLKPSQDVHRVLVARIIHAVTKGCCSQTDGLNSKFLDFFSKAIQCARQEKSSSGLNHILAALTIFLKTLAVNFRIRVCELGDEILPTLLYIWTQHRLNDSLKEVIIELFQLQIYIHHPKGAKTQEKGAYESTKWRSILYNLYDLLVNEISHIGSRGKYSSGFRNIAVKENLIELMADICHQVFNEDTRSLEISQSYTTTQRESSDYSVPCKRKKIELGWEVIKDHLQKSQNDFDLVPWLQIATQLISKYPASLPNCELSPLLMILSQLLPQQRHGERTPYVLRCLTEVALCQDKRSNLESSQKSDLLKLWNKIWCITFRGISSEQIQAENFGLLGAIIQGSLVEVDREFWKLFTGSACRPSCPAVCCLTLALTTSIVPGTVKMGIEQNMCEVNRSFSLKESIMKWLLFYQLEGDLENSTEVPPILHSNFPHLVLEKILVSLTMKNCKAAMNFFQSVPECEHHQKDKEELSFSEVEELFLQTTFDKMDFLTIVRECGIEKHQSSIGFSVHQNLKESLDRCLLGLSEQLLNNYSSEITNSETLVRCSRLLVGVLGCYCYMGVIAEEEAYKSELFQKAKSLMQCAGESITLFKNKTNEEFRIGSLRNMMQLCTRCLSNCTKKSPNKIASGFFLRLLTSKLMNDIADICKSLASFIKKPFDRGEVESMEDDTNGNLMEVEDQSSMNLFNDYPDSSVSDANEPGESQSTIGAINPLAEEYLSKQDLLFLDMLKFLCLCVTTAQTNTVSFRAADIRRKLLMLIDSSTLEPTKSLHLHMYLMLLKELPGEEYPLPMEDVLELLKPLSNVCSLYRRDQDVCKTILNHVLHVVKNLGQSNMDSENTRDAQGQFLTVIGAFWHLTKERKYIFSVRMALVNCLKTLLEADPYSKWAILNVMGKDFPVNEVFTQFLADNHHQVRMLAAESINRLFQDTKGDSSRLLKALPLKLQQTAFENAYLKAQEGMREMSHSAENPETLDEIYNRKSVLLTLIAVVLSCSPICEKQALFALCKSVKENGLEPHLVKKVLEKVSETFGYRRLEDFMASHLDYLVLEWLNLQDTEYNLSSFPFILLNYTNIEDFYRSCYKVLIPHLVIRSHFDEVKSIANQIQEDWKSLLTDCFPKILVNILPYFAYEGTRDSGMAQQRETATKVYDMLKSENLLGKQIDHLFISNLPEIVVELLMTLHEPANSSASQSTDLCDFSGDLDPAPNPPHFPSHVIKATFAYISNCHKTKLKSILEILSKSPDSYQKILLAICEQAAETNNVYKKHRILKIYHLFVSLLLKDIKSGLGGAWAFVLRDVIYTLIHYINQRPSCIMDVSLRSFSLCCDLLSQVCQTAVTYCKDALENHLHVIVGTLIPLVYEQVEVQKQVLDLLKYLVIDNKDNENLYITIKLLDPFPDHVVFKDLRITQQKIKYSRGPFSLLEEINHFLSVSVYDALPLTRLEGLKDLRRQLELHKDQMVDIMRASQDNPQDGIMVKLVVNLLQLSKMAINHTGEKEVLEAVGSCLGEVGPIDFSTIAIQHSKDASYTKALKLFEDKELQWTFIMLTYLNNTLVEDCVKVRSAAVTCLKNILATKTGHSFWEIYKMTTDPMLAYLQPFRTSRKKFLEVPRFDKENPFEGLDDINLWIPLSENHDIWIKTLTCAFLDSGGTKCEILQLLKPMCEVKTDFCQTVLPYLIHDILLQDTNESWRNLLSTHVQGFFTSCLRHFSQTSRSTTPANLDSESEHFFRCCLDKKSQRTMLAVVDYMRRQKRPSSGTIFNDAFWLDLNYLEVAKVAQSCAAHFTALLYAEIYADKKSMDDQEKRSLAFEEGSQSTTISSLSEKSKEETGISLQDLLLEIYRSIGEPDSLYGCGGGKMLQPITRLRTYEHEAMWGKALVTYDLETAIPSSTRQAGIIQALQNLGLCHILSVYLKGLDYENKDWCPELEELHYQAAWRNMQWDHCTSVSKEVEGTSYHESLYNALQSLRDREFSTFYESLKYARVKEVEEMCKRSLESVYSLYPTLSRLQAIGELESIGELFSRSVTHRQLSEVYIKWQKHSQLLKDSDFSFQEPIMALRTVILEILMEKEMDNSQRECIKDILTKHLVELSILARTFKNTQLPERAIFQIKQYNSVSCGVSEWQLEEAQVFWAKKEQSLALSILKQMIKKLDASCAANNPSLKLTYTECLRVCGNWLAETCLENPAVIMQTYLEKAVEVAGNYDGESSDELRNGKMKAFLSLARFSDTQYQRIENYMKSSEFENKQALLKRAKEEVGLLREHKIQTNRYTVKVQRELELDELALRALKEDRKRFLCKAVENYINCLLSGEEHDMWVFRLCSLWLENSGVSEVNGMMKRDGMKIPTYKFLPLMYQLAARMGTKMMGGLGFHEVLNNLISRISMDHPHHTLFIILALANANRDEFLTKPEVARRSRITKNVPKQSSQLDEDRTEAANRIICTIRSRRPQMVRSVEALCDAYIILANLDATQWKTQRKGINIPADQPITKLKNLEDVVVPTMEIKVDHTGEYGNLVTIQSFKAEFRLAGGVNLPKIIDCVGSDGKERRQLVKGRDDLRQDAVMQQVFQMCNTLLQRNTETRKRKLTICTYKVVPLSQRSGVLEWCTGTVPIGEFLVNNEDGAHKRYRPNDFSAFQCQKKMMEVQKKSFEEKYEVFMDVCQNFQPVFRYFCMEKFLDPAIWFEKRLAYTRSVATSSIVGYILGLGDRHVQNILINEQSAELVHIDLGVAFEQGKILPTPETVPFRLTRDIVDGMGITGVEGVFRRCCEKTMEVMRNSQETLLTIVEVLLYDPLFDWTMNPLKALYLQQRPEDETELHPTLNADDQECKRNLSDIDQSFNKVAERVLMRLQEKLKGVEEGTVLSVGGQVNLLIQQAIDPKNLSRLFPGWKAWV
Experimental: Human corneas were obtained from the Lions Eye Bank of Delaware Valley. Rabbit corneas were excised from intact fresh eyeballs of young (8-12 weeks) albino rabbits (Pel-Freez Biologicals, Rogers, Ark.). Protocol (Alekseev et al., 2012, J Vis Exp 69:e3631) for ex vivo corneal culture, infection, and treatment was followed closely. Briefly, corneoscleral buttons were excised and rinsed in PBS containing 200 U/mL penicillin and 200 μg/mL streptomycin. The endothelial concavity was filled with culture medium containing 1% low melting temperature agarose. The corneas were cultured epithelial side up in MEM medium supplemented with nonessential amino acids (1×), 2 mM […], 200 U/mL penicillin, and 200 μg/mL streptomycin. The next day, they were infected with 1×10^4 plaque forming units (PFU)/cornea of strain KOS HSV-1 for 1 hour, rinsed, and overlaid with fresh medium. Drug treatments were administered at the same concentrations as for cultured cells. For KU-55933 bioavailability assessment, corneas were treated with bleomycin (200 μg/mL) for 1 hour. […] Treatment toxicity was assessed by briefly staining the cornea with fluorescein (1% wt/vol in PBS) and imaging the epithelial defects with 464-nm wavelength blue light (LDP LLC, Carlstadt, N.J.).
Standard protocol was followed for Western blot analysis. […] Protein concentrations were measured by bicinchoninic acid (BCA) assay. […]

NC(=O)c1ccc2[nH]c(-c3ccc(Oc4ccc(Cl)cc4)cc3)nc2c1 [Chk2 inhibitor II, 2-(4-(4-chlorophenoxy)phenyl)-1H-benzimidazole-5-carboxamide]
cytopathic effect (CPE) of HSV-1 [1]: almost completely eliminated | generation of infectious viral particles (plaque assay) ([2]; MOI 0.1, 10 μM, vs controls): reduction | viral genome replication (qPCR) ([3]; hTCEpi cells): profoundly reduced | viral genome levels (qPCR) at high viral load ([3]; hTCEpi cells, MOI 5, 10 μM): reduced yet still substantial decrease

O=c1cc(-c2cccc3c2Sc2ccccc2S3)oc(N2CCOCC2)c1 [KU-55933, 2-(morpholin-4-yl)-6-(thianthren-1-yl)-pyran-4-one]
cytopathic effect (CPE) of HSV-1 [1]: prevented | inhibition of infectious particle production (plaque assay) ([2]; MOI 0.1, KU-55933 10 μM, 20 hpi): greater than 10,000 fold | viral genome replication (qPCR) ([3]; hTCEpi cells): sharp reduction | effect of addition on the dose-response curve of the partner drug ([3]; hTCEpi, MOI 0.1, KU-55933 0-7 μM with acyclovir 0-1.5 μg/mL, 16 hpi): shifted the acyclovir dose-response curve to the left | pATM level in corneal epithelium [4]: completely eliminated
